IC50 data for 30 compounds are collected here from patent US20260317356A1, “SMALL MOLECULE MODULATORS OF OGG1” (AZKARRA THERAPEUTICS, INC., priority 2023, published 2026).

This test has as its target hOGG1 (Homo sapiens, UniProt O15527). Kind of test: Biochemical fluorescence assay to measure enzymatic activity of hOGG1 (OGG1/APEX IC50). More on the design: Protein His-hOGG1 (12-323) was prepared; His (N); host or cells: E. coli. As to conditions: 1 nM OGG1+2 nM APEX+6 nM dsDNA (8-oxo-dG substrate); pH 7.5; RT 40 min; read-out: OGG1/APEX IC50. An outline of the steps: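 His-hOGG1 (12-323, E. coli) at 1 nM with 2 nM hAPE1/APEX1, preincubated 20 min RT with compound. Then 6 nM 8-oxo-dG dsDNA substrate added, 40 min at RT in Tris pH 7.5, 100 mM KCl. TAMRA fluorescence (Ex520/Em600) converted to % inhibition vs controls; IC50 from 3-parameter fit of 10-point curve.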

Some results are limits rather than exact numbers.

Sequence of hOGG1 (O15527 12-323): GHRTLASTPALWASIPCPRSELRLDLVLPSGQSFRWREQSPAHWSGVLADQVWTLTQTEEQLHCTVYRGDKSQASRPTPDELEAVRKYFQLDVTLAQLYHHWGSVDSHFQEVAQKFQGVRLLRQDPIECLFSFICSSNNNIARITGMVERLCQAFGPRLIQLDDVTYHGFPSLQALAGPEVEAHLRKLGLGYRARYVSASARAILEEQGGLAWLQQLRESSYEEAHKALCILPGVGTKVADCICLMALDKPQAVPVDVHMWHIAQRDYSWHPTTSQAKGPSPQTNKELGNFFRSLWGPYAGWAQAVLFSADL

On to `Cc1cccc2c1CN([C@H]1CC[C@@H](C(=O)Nc3cc[nH]c(=O)c3)CC1)C2=O` [Example 250, (1s,4s)-4-(4-methyl-1-oxoisoindolin-2-yl)-N-(2-oxo-1,2-dihydropyridin-4-yl)cyclohexanecarboxamide], for which the IC50 is above 10 µM.
For `Cc1cccc2c1CN([C@H]1CC[C@@H](C(=O)Nc3ccc4oncc4c3)CC1)C(=O)N2` [Example 114, (1s,4s)-N-(benzo[d]isoxazol-5-yl)-4-(5-methyl-2-oxo-1,2-dihydroquinazolin-3(4H)-yl)cyclohexanecarboxamide], the IC50 lay within 1 to 10 µM.
In the case of `CCc1ccc(NC(=O)[C@H]2CC[C@@H](N3Cc4c(C)cccc4NC3=O)CC2)cc1C` [Example 93, (1s,4s)-N-(4-ethyl-3-methylphenyl)-4-(5-methyl-2-oxo-1,2-dihydroquinazolin-3(4H)-yl)cyclohexanecarboxamide] it was 0.1 to 1 µM; in that of `COc1cc(NC(=O)[C@@H]2CC[C@@H](N3Cc4c(C)cc(Br)cc4NC3=O)C2)ccc1C` [Example 36, (1R,3R)-3-(7-Bromo-5-methyl-2-oxo-1,2-dihydroquinazolin-3(4H)-yl)-N-(3-methoxy-4-methylphenyl)cyclopentanecarboxamide], 1 to 10 µM; in that of `COc1cc(NC(=O)[C@H]2CC[C@@H](n3[nH]c4c(C)cccc4c3=O)CC2)ccc1C` [Example 118, (1s,4s)-N-(3-Methoxy-4-methylphenyl)-4-(7-methyl-3-oxo-1,3-dihydro-2H-indazol-2-yl)cyclohexane-1-carboxamide], below 0.1 µM.
For `Cc1ccc(NC(=O)[C@H]2CC[C@@H](N3Cc4c(C)cccc4C3=O)CC2)cc1Br` [Example 124, (1s,4s)-N-(3-Bromo-4-methylphenyl)-4-(4-methyl-1-oxoisoindolin-2-yl)cyclohexane-1-carboxamide], the IC50 fell in the range of 0.1 to 1 µM.
Next, `COc1cc(NC(=O)[C@H]2CC[C@@H](N3Cc4c(C)ccc(N5CC(C)(C#N)C5)c4NC3=O)CC2)ccc1C` [Example 34, (1s,4s)-4-(8-(3-Cyano-3-methylazetidin-1-yl)-5-methyl-2-oxo-1,2-dihydroquinazolin-3(4H)-yl)-N-(3-methoxy-4-methylphenyl)cyclohexanecarboxamide]: 0.1 to 1 µM; `COc1ccc(NC(=O)[C@H]2CC[C@@H](N3Cc4c(C)cc(NCCN(C)C)cc4NC3=O)CC2)cc1Cl` [Example 100, (1s,4s)-N-(3-chloro-4-methoxyphenyl)-4-(7-(2-(dimethylamino)ethylamino)-5-methyl-2-oxo-1,2-dihydroquinazolin-3(4H)-yl)cyclohexanecarboxamide]: below 0.1 µM; `COc1cc(NC(=O)[C@H]2CC[C@@H](N3Cc4c(C)cccc4C3=O)CC2)ccc1Cl` [Example 223, (1s,4s)-N-(4-Chloro-3-methoxyphenyl)-4-(4-methyl-1-oxoisoindolin-2-yl)cyclohexanecarboxamide]: 0.1 to 1 µM.
Next, `C=Cc1ccc2c(c1C)CN([C@H]1CC[C@@H](C(=O)Nc3ccc(C)c(OC)c3)CC1)C(=O)N2` [Example 53, (1s,4s)-N-(3-methoxy-4-methylphenyl)-4-(5-methyl-2-oxo-6-vinyl-1,2-dihydroquinazolin-3(4H)-yl)cyclohexanecarboxamide]: 1 to 10 µM.
In the case of `COc1cc(NC(=O)[C@H]2CC[C@@H](N3Cc4c(ccnc4Br)C3=O)CC2)ccc1C` [Example 176, (1s,4s)-4-(4-Bromo-1-oxo-1H-pyrrolo[3,4-c]pyridin-2(3H)-yl)-N-(3-methoxy-4-methylphenyl)cyclohexanecarboxamide] it was 0.1 to 1 µM; in that of `COc1cc(NC(=O)[C@H]2CC[C@@H](N3Cc4c(cccc4OC)NC3=O)CC2)ccc1C` [Example 71, (1s,4s)-4-(5-methoxy-2-oxo-1,2-dihydroquinazolin-3(4H)-yl)-N-(3-methoxy-4-methylphenyl)cyclohexanecarboxamide], 1 to 10 µM.
For the compound `COc1ccc(NC(=O)[C@]2(C)CC[C@@H](N3Cc4c(C)cccc4NC3=O)CC2)cc1Cl` (single isomer, unassigned) [Example 104, (1r,4r)-N-(3-chloro-4-methoxyphenyl)-1-methyl-4-(5-methyl-2-oxo-1,2-dihydroquinazolin-3(4H)-yl)cyclohexanecarboxamide], the IC50 lay within 1 to 10 µM.
In the case of `COc1cc(NC(=O)[C@H]2CC[C@@H](N3Cc4c(C)cc(C(=O)NCCN(C)C)cc4C3=O)CC2)ccc1C` [Example 217, N-(2-(Dimethylamino)ethyl)-2-((1s,4s)-4-(3-methoxy-4-methylphenylcarbamoyl)cyclohexyl)-7-methyl-3-oxoisoindoline-5-carboxamide] it was below 0.1 µM; in that of `COc1cc(NC(=O)[C@H]2CC[C@@H](N3Cc4c(ccc(N)c4C)NC3=O)CC2)ccc1C` [Example 46, (1s,4s)-4-(6-Amino-5-methyl-2-oxo-1,2-dihydroquinazolin-3(4H)-yl)-N-(3-methoxy-4-methylphenyl)cyclohexanecarboxamide], 1 to 10 µM; in that of `COc1cc(NC(=O)[C@H]2CC[C@@H](N3Cc4c(C=O)cccc4C3=O)CC2)ccc1C` [Example 162, (1s,4s)-4-(4-Formyl-1-oxoisoindolin-2-yl)-N-(3-methoxy-4-methylphenyl)cyclohexanecarboxamide], 1 to 10 µM.
Next, `COc1cc(NC(=O)[C@H]2CC[C@@H](N3Cc4c(C)cc(C(=O)O)cc4NC3=O)CC2)ccc1C` [Example 79, 3-((1s,4s)-4-(3-methoxy-4-methylphenylcarbamoyl)cyclohexyl)-5-methyl-2-oxo-1,2,3,4-tetrahydroquinazoline-7-carboxylic Acid]: 0.1 to 1 µM; `COc1cc(NC(=O)[C@H]2CC[C@@H](N3Cc4c(C)ccc(CN(C)C)c4NC3=O)CC2)ccc1C` [Example 52, (1s,4s)-4-(8-((Dimethylamino)methyl)-5-methyl-2-oxo-1,2-dihydroquinazolin-3(4H)-yl)-N-(3-methoxy-4-methylphenyl)cyclohexanecarboxamide]: below 0.1 µM.
In the case of `COc1cc(NC(=O)[C@@H]2CC[C@@H](N3Cc4c(C)cc(NCCN(C)C)cc4C3=O)C2)ccc1C` [Example 139, (1R,3R)-3-(6-((2-(Dimethylamino)ethyl)amino)-4-methyl-1-oxoisoindolin-2-yl)-N-(3-methoxy-4-methylphenyl)cyclopentanecarboxamide] it was above 10 µM; in that of `CNC(=O)c1cc(C)c2c(c1)NC(=O)N([C@H]1CC[C@@H](C(=O)Nc3ccc(C)c(OC)c3)CC1)C2` [Example 80, 3-((1s,4s)-4-(3-methoxy-4-methylphenylcarbamoyl)cyclohexyl)-N,5-dimethyl-2-oxo-1,2,3,4-tetrahydroquinazoline-7-carboxamide], below 0.1 µM.
For the compound `COc1cc(NC(=O)[C@H]2CC[C@@H](N3Cc4c(ccc(OCCN5CCOCC5)c4C)NC3=O)CC2)ccc1C` [Example 50, (1s,4s)-N-(3-Methoxy-4-methylphenyl)-4-(5-methyl-6-(2-morpholinoethoxy)-2-oxo-1,2-dihydroquinazolin-3(4H)-yl)cyclohexanecarboxamide], the IC50 fell in the range of 1 to 10 µM.
In the case of `COc1cc(NC(=O)[C@H]2CC[C@@H](N3Cc4c(Br)ccc(Cl)c4C3=O)CC2)ccc1C` [Example 142, (1s,4s)-4-(4-Bromo-7-chloro-1-oxoisoindolin-2-yl)-N-(3-methoxy-4-methylphenyl)cyclohexanecarboxamide] it was 0.1 to 1 µM; in that of `COc1cc(NC(=O)[C@@H]2CC[C@H](N3Cc4ccccc4NC3=O)C2)ccc1C` [Example 65, (1R,3S)—N-(3-methoxy-4-methylphenyl)-3-(2-oxo-1,2-dihydroquinazolin-3(4H)-yl)cyclopentanecarboxamide], 1 to 10 µM.
`Cc1cc(NCCN(C)C)cc2c1CN([C@H]1CC[C@@H](C(=O)Nc3nc4ccccc4s3)CC1)C2=O` [Example 129, (1s,4s)-N-(Benzo[d]thiazol-2-yl)-4-(6-((2-(dimethylamino)ethyl)amino)-4-methyl-1-oxoisoindolin-2-yl)cyclohexane-1-carboxamide]: the IC50 fell in the range of 0.1 to 1 µM.
In the case of `COc1cc(NC(=O)[C@H]2CC[C@@H](N3Cc4c(Br)cc(NC(=O)CN5CCC5)cc4C3=O)CC2)ccc1C` [Example 200, (1s,4s)-4-(6-(2-(Azetidin-1-yl)acetamido)-4-bromo-1-oxoisoindolin-2-yl)-N-(3-methoxy-4-methylphenyl)cyclohexanecarboxamide] it was 0.1 to 1 µM; in that of `COc1cc(NC(=O)[C@H]2CC[C@@H](N3Cc4ccccc4C3=O)CC2)ccc1C` [Example 148, (1s,4s)-N-(3-Methoxy-4-methylphenyl)-4-(1-oxoisoindolin-2-yl)cyclohexanecarboxamide], 1 to 10 µM.
For the compound `COc1cc(NC(=O)[C@H]2CC[C@@H](N3Cc4c(C)cccc4C3=O)CC2)ccc1Br` [Example 120, (1s,4s)-N-(4-Bromo-3-methoxyphenyl)-4-(4-methyl-1-oxoisoindolin-2-yl)cyclohexane-1-carboxamide], the IC50 was in the range of 0.1 to 1 µM.
With `COc1cc(NC(=O)[C@H]2CC[C@@H](N3Cc4c(C)cc(C#N)cc4NC3=O)CC2)ccc1C` [Example 31, (1s,4s)-4-(7-Cyano-5-methyl-2-oxo-1,2-dihydroquinazolin-3(4H)-yl)-N-(3-methoxy-4-methylphenyl)cyclohexanecarboxamide], the IC50 was below 0.1 µM.
Next, `CCc1cccc2c1CN([C@H]1CC[C@@H](C(=O)Nc3ccc(C)c(OC)c3)CC1)C2=O` [Example 156, (1s,4s)-4-(4-Ethyl-1-oxoisoindolin-2-yl)-N-(3-methoxy-4-methylphenyl)cyclohexanecarboxamide]: 1 to 10 µM; `COc1c(F)cc(NC(=O)[C@H]2CC[C@@H](N3Cc4c(C)cccc4C3=O)CC2)cc1F` [Example 243, (1s,4s)-N-(3,5-Difluoro-4-methoxyphenyl)-4-(4-methyl-1-oxoisoindolin-2-yl)cyclohexanecarboxamide]: 0.1 to 1 µM.
